Several values for one entry are separate records, joined by “and”; a condition that tells them apart may be missing. Identical values can stand only once.
Tests used:
[1] = test system: thrombin time in the whole blood; experiment: In vivo trial, rabbit: dose required to prolong thrombin time in the whole blood 1.5 to 2.5 fold; conditions: thrombin time in whole blood prolonged 1.5 to 2.5 fold
Excerpt: (§1) ^a The therapeutic effect is characterized by the dose required to […]

[2] = test system: thrombin time in the whole blood; experiment: In vivo trial, dog: dose required to prolong thrombin time in the whole blood 1.5 to 2.5 fold; conditions: thrombin time in whole blood prolonged 1.5 to 2.5 fold
Excerpt: as §1

[3] = cited from earlier work
[4] = target: T1, U.S. Standard Human Thrombin (Homo sapiens, UniProt P00734); experiment: Antithrombin activity (thrombin time) in human plasma; assay type: biochemical; parameters: U.S. Standard Human Thrombin; purchased NIH, Bethesda, Md., USA; conditions: for Relative activity: sulfate = 100; for amount required for a twofold thrombin time increase relative to the tripeptide aldehyde sulfate: human plasma; for IC (2-fold thrombin time): pH 7.2, read-out: Amount of peptide required to increase thrombin time twofold immediately following dissolution of the peptide
Experimental: In order to simulate physiological conditions the antithrombin activity of the tripeptide aldehyde salts as well as that of the carbamic acid derivatives was tested also on human plasma in the following system:
0.2 ml of human citrate plasma,
0.1 ml of tris(hydroxymethyl)-amino-methane hydrochloride--hydrochloric acid buffer solution (pH 7.2) containing the peptide solution, and
0.1 ml of U.S. Standard Human Thrombin (NIH, Bethesda Md., USA), 10 Units/ml solution.

[5] = target: T1, U.S. Standard Human Thrombin; experiment: Antithrombin activity (thrombin time) of peptide solutions stored in isotonic salt solution, fibrinogen system; conditions: for Relative activity after 0 days: 10 mg/ml, 100 = fivefold relative thrombin time at 3.5 × 10^-7 M
Experimental: In the course of our tests the peptides were dissolved in concentrations of 10 mg/ml, stored at 5° C., and the ensuing change in antithrombin activity registered for 180 days. The potency was assayed in a system containing the following components:
0.2 ml of 0.5 percent bovine fibrinogen in a 0.9 percent solution of sodium chloride,
0.1 ml of tris(hydroxymethyl)-amino-methane hydrochloride--hydrochloric acid buffer (pH 7.2) containing the peptide solution
0.1 ml of U.S. Standard Human Thrombin (NIH, Bethesda, Md., USA), 10 Unit/ml solution.
The activity of the tripeptide aldehyde solution was arbitrarily set up as 100, if the reaction mixture induced a fivefold relative thrombin time at a final concentration of 3.5×10^-7 M (in the case of the tripeptide aldehyde sulfate at 0.175 μg/ml).

[6] = Stability of peptide aldehyde salts/derivatives in aqueous solution and in solid form; assay type: physicochemical
Acute toxicity in mice = assay type: in vivo; conditions: mouse, in vivo
thrombin = conditions: known from Hungarian Pat. No. 169,870 / Belgian Pat. No. 880,844; cited from earlier work
[7] = test system: thrombin time in the whole blood; experiment: In vivo trial of the tripeptide aldehyde derivatives, summary statements; parameters: species or system rabbit, dog; conditions: for oral dose at which therapeutic effect may be achieved: species not given
Excerpt: as §1

Solubility = assay type: physicochemical
mice = experiment: Acute toxicity in mice; assay type: in vivo; conditions: acute toxicity
[8] = Acute toxicity at intravenous infusion in the rabbit; conditions: in vivo
[9] = ip, mice, i.p., read-out: LD50 i.p.
[10] = iv, mice, i.v. bolus, read-out: LD50 i.v. bolus
[11] = po, mice, p.o., read-out: LD50 p.o.

Row | Molecule | Dose required for therapeutic effect, s.c., rabbit [1] | Dose required for therapeutic effect, i.v. infusion, dog [2] | Dose required for therapeutic effect, s.c., dog [2] | Relative activity ([4]; human citrate plasma) | Dose required for therapeutic effect, p.o., dog [2] | amount required for a twofold thrombin time increase relative to the tripeptide aldehyde sulfate [4] | IC (2-fold thrombin time) [4] | activity starting to decrease (in words) ([5]; isotonic salt solution, 5° C.) | Dose required for therapeutic effect, p.o., rabbit [1] | LD50 (Acute toxicity in mice; [11]) | other results
1 | Heparin | 5.0 mg/kg | 0.5 mg/kg/h | 2.0 mg/kg | 19 |  |  |  |  |  |  | Dose required for therapeutic effect, i.v. infusion, rabbit [1]: 0.6 mg/kg/h; activity given orally ([3]; oral): practically inactive at oral application; time until effect may be registered (in words) ([3]; primarily i.v. infusion): rapidly, within a short period of time; Amount of peptide required to increase thrombin time twofold immediately following dissolution of the peptide ([4]; human citrate plasma, pH 7.2, amount in the reaction mixture): 0.105 µg/mL
2 | CC(=O)O.Cl.N=C(N)NCCC[C@@H](C=O)NC(=O)[C@@H]1CCCN1C(=O)[C@H](N)Cc1ccccc1 [D-Phe-Pro-Arg-H.2HCl, D-phenylalanyl-L-prolyl-L-arginine aldehyde acetate and hydrochloride] |  |  |  |  | 100 mg/kg | manifold | 0.06 to 0.13 µg/mL |  |  |  | activity starting to decrease after ([5]; isotonic salt solution, 5° C.): > 5 days; antithrombin potency upon standing in aqueous solution [6]: varying and rapidly decreasing
3 | CC(=O)O.N=C(N)NCCC[C@@H](C=O)NC(=O)[C@@H]1CCCN1C(=O)[C@H](N)Cc1ccccc1 [D-Phe-Pro-Arg-H.2 CH3 COOH, D-phenylalanyl-L-prolyl-L-arginine aldehyde acetate] |  |  |  |  | 100 mg/kg | manifold | 0.065 to 0.14 µg/mL | already after several days | 100 mg/kg | 960 mg/kg | LD50 (Acute toxicity in mice; [9]): 38 mg/kg; LD50 (Acute toxicity in mice; [10]): 9 mg/kg; antithrombin potency upon standing in aqueous solution [6]: varying and rapidly decreasing; thrombin inhibition (thrombin): potent thrombin inhibitors
4 | N=C(NCCC[C@@H](C=O)NC(=O)[C@@H]1CCCN1C(=O)[C@H](N)Cc1ccccc1)NC(=O)O [D-Phe-Pro-Arg/COOH/-H, D-phenylalanyl-L-prolyl-N^G -carboxy-L-arginine aldehyde] | 10.0 mg/kg | 3.0 mg/kg/h | 6.0 mg/kg | 45 | 50 mg/kg | twofold | 0.042 µg/mL | already after several days | 50 mg/kg | 1200 mg/kg | Relative activity after 0 days ([5]; isotonic salt solution, 5° C.): 100; oral dose at which therapeutic effect may be achieved [7]: 50 mg/kg; potency after several days ([6]; aqueous buffer solution, after several days): significant reduction in potency; activity after several months in solid form ([6]; solid form, after several months): loss of original activity even in solid form; solubility (Solubility): poor solubility; thrombin inhibition (thrombin): potent thrombin inhibitors
5 | N=C(N)NCCC[C@@H](C=O)NC(=O)[C@@H]1CCCN1C(=O)[C@H](N)Cc1ccccc1 [citrate] |  |  |  |  |  |  |  | already after several days |  |  | 
6 | N=C(N)NCCC[C@@H](C=O)NC(=O)[C@@H]1CCCN1C(=O)[C@H](N)Cc1ccccc1.O=S(=O)(O)O [D-Phe-Pro-Arg-H.H2 SO4, D-Phenylalanyl-L-prolyl-L-arginine aldehyde sulfate] | 6.0 mg/kg | 0.5 mg/kg/h | 6.0 mg/kg | 100 | 25 mg/kg |  | 0.02 µg/mL |  | 25 mg/kg | > 2000 mg/kg | Relative activity after 0 days ([5]; isotonic salt solution, 5° C.): 100; retaining its antithrombin activity ([5]; isotonic salt solution, 5° C.): ≥ 90 days; IC (5-fold thrombin time) ([5]; pH 7.2, read-out: final concentration inducing a fivefold relative thrombin time (activity set up as 100)): 0.35 µM and 0.175 µg/mL; stable in aqueous medium ([5]; prolonged stability trials, aqueous medium): ≥ 180 days; failed to lose activity in solid form ([5]; solid form): ≥ 6 months; Dose required for therapeutic effect, i.v. infusion, rabbit [1]: 1.0 mg/kg/h; antithrombin potency in vivo ([7]; in vivo): significant antithrombin potency in vivo; efficacy at intravenous and subcutaneous application ([7]; intravenous and subcutaneous, compared with heparin): in the range of that of heparin; oral dose at which therapeutic effect may be achieved [7]: 25 mg/kg; LD50 (Acute toxicity in mice; [9]): 230 mg/kg; LD50 (Acute toxicity in mice; [10]): 45 mg/kg; LD50 (Acute toxicity in mice; po, oral administration, read-out: acute toxicity at oral administration): 2000 mg/kg; LD50 (Acute toxicity in mice; sc, mice, s.c., read-out: LD50 s.c.): 1800 mg/kg; toxicity data compared with the acetate and the carbamic acid derivative (mice): more favourable than those of either the acetate or the carbamic acid derivative; LD50 [8]: 58 mg/kg
7 | N=C(N)NCCC[C@@H](C=O)NC(=O)[C@@H]1CCCN1C(=O)[C@H](N)Cc1ccccc1 [tosylate] |  |  |  |  |  |  |  |  |  |  | change of antithrombin activity compared with the acetate ([5]; isotonic salt solution, Table 1 footnote d): changing similarly to that of the acetate

Reference: US4399065A, “D-Phenylalanyl-L-prolyl-L-arginine aldehyde sulfate and process for the preparation thereof” (Patentbureau Danubia, priority 1981, dated 1983)
